This note sets out measurements from patent EP3294317B1, “ENHANCED ANTIBIOTIC COMPOSITION” (Universitat Autònoma de Barcelona, priority 2015, dated 2016).

The test system of test [1] is Escherichia coli ATCC 9637. Description: Colistin broth microdilution MIC with potentiator compounds (Example 1). In kind it is cell-based. Particulars: E. coli ATCC 9637; MIC in the presence of 1.0% DMSO / MIC in the presence of 0.1 mM potentiator compound and 1.0% DMSO; positive = increased, negative = decreased susceptibility, 1 = no effect.
Test [2] concerns Pseudomonas aeruginosa PAO1. The test is described as above. In kind it is cell-based. Particulars: P. aeruginosa PAO1; MIC in the presence of 1.0% DMSO / MIC in the presence of 0.1 mM potentiator compound and 1.0% DMSO; positive = increased, negative = decreased susceptibility, 1 = no effect.
The test system of test [3] is A. baumannii 6963. In words: Colistin broth microdilution MIC with potentiator compounds, resistant clinical isolates (Example 3). Particulars: MIC in the presence of 1.0% DMSO / MIC in the presence of 0.1 mM compound and 1.0% DMSO, positive = increased susceptibility, 1 = no effect. In kind it is cell-based, Acinetobacter baumannii. Here is the method: (§1) The potentiator effect of the compound of the invention and other compounds disclosed herein was tested using colistin sulfate as antibiotic and in combination with the enhancer compounds in front of resistant clinical isolates.
(§2) Tests were performed to determine the potentiator effect of the compound of the invention and other compounds disclosed herein with multidrug-resistant S. maltophilia and A. baumannii clinical strains as shown in Table 5: TABLE 5
(§3) For this experiment the potentiator compound was added to a colistin broth microdilution assay at a final concentration of 0.1mM. MICs were determined as described in the Example 1.
(§4) Colistin minimal inhibitory concentration (MIC), expressed in µg/mL, and the fold increase in bacterial susceptibility to colistin when combined with the potentiator compound (expressed as MIC in the presence of 1.0% DMSO / MIC in the presence of 0.1 mM of each potentiator compound and 1.0% DMSO) are shown in Table 6: […]

For test [4], the system named is A. baumannii 6799. The test is described as above. In kind it is cell-based, Acinetobacter baumannii. To be noted: MIC in the presence of 1.0% DMSO / MIC in the presence of 0.1 mM compound and 1.0% DMSO, positive = increased susceptibility, 1 = no effect. Here is the method: as §1, §2, §3, §4
For test [5], the system named is A. baumannii 6963. Description: Broth microdilution MIC of other antibiotics with potentiator compounds, clinical isolates (Example 4). In kind it is cell-based, Acinetobacter baumannii. To be noted: any of ciprofloxacin, amikacin, levofloxacin, imipenem, TMP/SMX (1:19), 0.1 mM compound, 1.0% DMSO, 'none' = no antibiotic potentiated. The procedure:
(§5) Following the procedure of Example 3, ciprofloxacin, amikacin, levofloxacin, imipenem and the combination trimethoprim/sulfamethoxasole (1:19) were tested. All were purchased from Sigma-Aldrich Co.
(§6) Minimal inhibitory concentration (MIC) of the antibiotic or the test combinations were determined by the broth microdilution method.
(§7) Antibiotic stock solutions were prepared according to CLSI recommendations and sterilizing by passage through 0.20 µm filters.
(§8) Antimicrobial susceptibility testing of these isolates was performed using the broth microdilution (BMD) method, according to CLSI guidelines.
(§9) The fold increase in bacterial susceptibility to antibiotics when combined with the potentiator compound (expressed as MIC in the presence of 1.0% DMSO / MIC in the presence of 0.1 mM of each potentiator compound and 1.0% DMSO) are shown in Table 7: […]

The subject of test [6] is A. baumannii 6799. The test is described as above. In kind it is cell-based, Acinetobacter baumannii. To be noted: for Fold increase in bacterial susceptibility to TMP/SMX: Trimethoprim:sulfamethoxazole 1:19, MIC in 1.0% DMSO / MIC with 0.1 mM compound and 1.0% DMSO. The procedure:
as §5, §6, §7, §8, §9

Test [7] deals with S. maltophilia 257. The description is as above. In kind it is cell-based, Stenotrophomonas maltophilia. To be noted: any of ciprofloxacin, amikacin, levofloxacin, imipenem, TMP/SMX (1:19), 0.1 mM compound, 1.0% DMSO, 'none' = no antibiotic potentiated. The procedure:
as §5, §6, §7, §8, §9

Test [8] has as its system Escherichia coli ATCC 25922. Description: Colistin broth microdilution MIC with potentiator compounds (Example 1). In kind it is cell-based. To be noted: E. coli ATCC 25922; MIC in the presence of 1.0% DMSO / MIC in the presence of 0.1 mM potentiator compound and 1.0% DMSO; positive = increased, negative = decreased susceptibility, 1 = no effect.
For test [9], the system named is S. maltophilia 257. In words: Colistin broth microdilution MIC with potentiator compounds, resistant clinical isolates (Example 3). In kind it is cell-based, Stenotrophomonas maltophilia. To be noted: MIC in the presence of 1.0% DMSO / MIC in the presence of 0.1 mM compound and 1.0% DMSO, positive = increased susceptibility, 1 = no effect. Here is the method:
as §1, §2, §3, §4

Another test has as its system S. maltophilia M30. The test is described as above. In kind it is cell-based, Stenotrophomonas maltophilia. To be noted: MIC in the presence of 1.0% DMSO / MIC in the presence of 0.1 mM compound and 1.0% DMSO, positive = increased susceptibility, 1 = no effect. The procedure:
as §1, §2, §3, §4

For test [10], the system named is Acinetobacter baumannii ATCC 15308. Description: Colistin broth microdilution MIC with potentiator compounds (Example 1). In kind it is cell-based. To be noted: A. baumannii ATCC 15308; MIC in the presence of 1.0% DMSO / MIC in the presence of 0.1 mM potentiator compound and 1.0% DMSO; positive = increased, negative = decreased susceptibility, 1 = no effect.
The subject of test [11] is S. maltophilia ATCC 13637. In words: Broth microdilution MIC of other antibiotics with potentiator compounds (Example 2). In kind it is cell-based, Stenotrophomonas maltophilia. The procedure:
(§10) Following the procedure of Example 1, ciprofloxacin, amikacin, levofloxacin, tigecycline, imipenem and the combination trimethoprim/sulfamethoxasole (1:19) were tested. All were purchased from Sigma-Aldrich Co.
as §6, §7, §8
(§11) The fold increase in bacterial susceptibility to antibiotics when combined with the potentiator compound (expressed as MIC in the presence of 1.0% DMSO / MIC in the presence of 0.1 mM of each potentiator compound and 1.0% DMSO) are shown in Table 4: […]

A further test deals with A. baumannii ATCC 15308. The test is described as above. In kind it is cell-based, Acinetobacter baumannii. To be noted: for Fold increase in bacterial susceptibility to TMP/SMX: Trimethoprim:sulfamethoxazole 1:19, MIC in 1.0% DMSO / MIC with 0.1 mM potentiator compound and 1.0% DMSO. The procedure:
as §10, §6, §7, §8, §11

In test [12] the test system is Salmonella enterica subsp. enterica ATCC 14028. In words: Colistin broth microdilution MIC with potentiator compounds (Example 1). In kind it is cell-based. To be noted: S. enterica ATCC 14028; MIC in the presence of 1.0% DMSO / MIC in the presence of 0.1 mM potentiator compound and 1.0% DMSO; positive = increased, negative = decreased susceptibility, 1 = no effect.
Test [13] concerns Pseudomonas aeruginosa ATCC 27853. The test is described as above. Particulars: P. aeruginosa ATCC 27853; MIC in the presence of 1.0% DMSO / MIC in the presence of 0.1 mM potentiator compound and 1.0% DMSO; positive = increased, negative = decreased susceptibility, 1 = no effect. In kind it is cell-based.
Test [14] has as its system Enterobacter aerogenes ATCC 13048. Described as above. Particulars: E. aerogenes ATCC 13048; MIC in the presence of 1.0% DMSO / MIC in the presence of 0.1 mM potentiator compound and 1.0% DMSO; positive = increased, negative = decreased susceptibility, 1 = no effect. In kind it is cell-based.
Test [15] relates to Stenotrophomonas maltophilia ATCC 13637. The test is described as above. In kind it is cell-based. Particulars: S. maltophilia ATCC 13637; MIC in the presence of 1.0% DMSO / MIC in the presence of 0.1 mM potentiator compound and 1.0% DMSO; positive = increased, negative = decreased susceptibility, 1 = no effect.
A further test has as its system P. aeruginosa ATCC 27853. In words: Broth microdilution MIC of other antibiotics with potentiator compounds (Example 2). To be noted: for Fold increase in bacterial susceptibility to antibiotic indicated: any of ciprofloxacin, amikacin, levofloxacin, tigecycline, imipenem, TMP/SMX (1:19), 0.1 mM potentiator, 1.0% DMSO, 'none' = no antibiotic potentiated. In kind it is cell-based, Pseudomonas aeruginosa. The procedure:
as §10, §6, §7, §8, §11

[16] abbreviates: MIC in 1.0% DMSO / MIC with 0.1 mM potentiator compound and 1.0% DMSO.
Setting [17] is: any of ciprofloxacin, amikacin, levofloxacin, tigecycline, imipenem, TMP/SMX (1:19), 0.1 mM potentiator, 1.0% DMSO, 'none' = no antibiotic potentiated.

On to `O=C(CCCN1C(=O)c2cccc3cccc(c23)C1=O)N1CCN(c2ccccc2O)CC1` [IIA, 2-[4-[4-(2-hydroxyphenyl)piperazin-1-yl]-4-oxobutyl]benzo[de]isoquinoline-1,3-dione], for which the “Fold increase in bacterial susceptibility to colistin” value (shortened to “Fold increase … to colistin”) in test [1] is recorded as “+2 fold”; in test [2] it was 1 fold; in the test with A. baumannii 6963 [3] it was “+2 fold”; in the test with A. baumannii 6799 [4], “+2 fold”; in test [8] it was 1 fold; in the test with S. maltophilia 257 [9], 1 fold. Moreover, the “Fold increase … to colistin” value in the test on S. maltophilia M30 is reported as “+8 fold”; in test [10], “+4 fold”; in test [12], “+2 fold”; in [13], -2 fold; in test [14], 1 fold; in test [15] it was “+4 fold”. Also, the “Fold increase in bacterial susceptibility to antibiotic indicated” value (from here on “Fold increase … to antibiotic indicated”) in the test with A. baumannii 6963 [5] and in the test on S. maltophilia 257 [7] was “none” in each case. The “Fold increase in bacterial susceptibility to Amikacin” value is reported as “Amikacin (2) TMP/SMX (2) fold” in the test with A. baumannii 6799 [6] (MIC in 1.0% DMSO / MIC with 0.1 mM compound and 1.0% DMSO); “Amikacin (2) TMP/SMX (2) fold” with A. baumannii ATCC 15308 (setting [16]). In addition, the “Fold increase in bacterial susceptibility to TMP/SMX” value in the test with A. baumannii 6799 [6] and in the test on A. baumannii ATCC 15308 was “Amikacin (2) TMP/SMX (2) fold” throughout. In test [11] (setting [16]), the “Fold increase in bacterial susceptibility to Tigecycline” value is “Tigecycline (2) fold”. Besides, in the test on P. aeruginosa ATCC 27853 (setting [16]), the “Fold increase in bacterial susceptibility to Imipenem” value is given as “Imipenem (2) fold”.

Take `CCOC(=O)c1cc2cc(C(=O)N3CCN(Cc4cccc(C(F)(F)F)c4)CC3)ccc2[nH]1` [IIB, ethyl 5-[4-[[3-(trifluoromethyl)phenyl]methyl]piperazine-1-carbonyl]-1 H-indole-2-carboxylate]: the “Fold increase … to colistin” value in [1] is given as “+2 fold”; in [2], “+2 fold”; in the test on A. baumannii 6963 [3] it was “+2 fold”; in the test on A. baumannii 6799 [4], “+2 fold”; in [8] it was 1 fold; in the test with S. maltophilia 257 [9], “+4 fold”. The “Fold increase … to colistin” value is “+16 fold” with S. maltophilia M30; above 8 fold in [10]; “+4 fold” in [12]; 1 fold in test [13]; 1 fold in [14]; “+4 fold” in [15]. For the same compound, the “Fold increase … to antibiotic indicated” value (with A. baumannii 6963 [5]; in the test with S. maltophilia 257 [7]; in test [11] (setting [17]); with P. aeruginosa ATCC 27853) was “none” in each case. Moreover, the “Fold increase in bacterial susceptibility to TMP/SMX” value with A. baumannii 6799 [6] and in the test on A. baumannii ATCC 15308 was “TMP/SMX (2) fold” in each case.

Turning to `O=C(NCC(=O)N1CCN(c2cccc(Cl)c2)CC1)c1cccc(NC(=O)c2cccnc2)c1` [IIC, N-[3-[[2-[4-(3-chlorophenyl)piperazin-1-yl]-2-oxoethyl]carbamoyl]-phenyl]pyridine-3-carboxamide], the “Fold increase … to colistin” value was 1 fold in test [1]; 1 fold in test [2]; “+2 fold” with A. baumannii 6963 [3]; “+2 fold” with A. baumannii 6799 [4]; 1 fold in test [8]; 1 fold in the test on S. maltophilia 257 [9]. Besides, the “Fold increase … to colistin” value in the test on S. maltophilia M30 was “+16 fold”; in test [10] it was “+4 fold”; in [12], 1 fold; in test [13] it was 1 fold; in test [14], 1 fold; in test [15], “+4 fold”.

For `N#Cc1cccc(CN2CCC(c3cnn(Cc4cccc(C#N)c4)c3)CC2)c1` [IID, 3-[[4-[1-[(3-cyanophenyl)methyl]pyrazol-4-yl]piperidin-1-yl]methyl]-benzonitrile], the “Fold increase … to colistin” value is given as 1 fold in test [1]; 1 fold in test [2]; “+4 fold” in the test with A. baumannii 6963 [3]; 1 fold in the test with A. baumannii 6799 [4]; 1 fold in test [8]; 1 fold with S. maltophilia 257 [9]. Also, the “Fold increase … to colistin” value in the test with S. maltophilia M30 is reported as “+16 fold”; in [10], “+4 fold”; in test [12], 1 fold; in [13], 1 fold; in test [14], 1 fold; in test [15], “+8 fold”. The “Fold increase in bacterial susceptibility to Ciprofloxacin” value in test [11] (setting [16]) was “Ciprofloxacin (2) Tigecycline (2) fold”. For the same compound, in test [11] (setting [16]), the “Fold increase in bacterial susceptibility to Tigecycline” value is recorded as “Ciprofloxacin (2) Tigecycline (2) fold”. The “Fold increase … to antibiotic indicated” value in the test on A. baumannii ATCC 15308 (setting [17]) and in the test on P. aeruginosa ATCC 27853 was “none” each time.
